{"source": "patent US4468511A", "about": "“C-20- And C-23-Modified macrolide derivatives” (Eli Lilly and Company, priority 1983, dated 1984)", "key": {"[1]": {"test_system": "Staphylococcus epidermidis EPI2", "assay": "MIC, standard agar-dilution assay", "type": "cell-based", "conditions": "Staphylococcus epidermidis, EPI2", "method": "(§1) The MIC's in Table II were determined by standard agar-dilution assays. The MIC's in Table III were obtained using a conventional broth-dilution microtiter test."}, "[2]": {"test_system": "Staphylococcus aureus X400", "assay": "MIC, standard agar-dilution assay", "type": "cell-based", "conditions": "Staphylococcus aureus, X400", "method": "as §1"}, "[3]": {"test_system": "Haemophilus influenzae C.L.", "assay": "MIC, standard agar-dilution assay", "type": "cell-based", "conditions": "Haemophilus influenzae", "method": "as §1"}, "[4]": {"test_system": "Haemophilus influenzae 76", "assay": "MIC, standard agar-dilution assay", "type": "cell-based", "conditions": "Haemophilus influenzae, 76", "method": "as §1"}, "[5]": {"test_system": "Pasteurella multocida 40G", "assay": "MIC, conventional broth-dilution microtiter test", "type": "cell-based", "conditions": "Pasteurella multocida, 40G", "in_short": "(§2)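 Two formats were used. Broth dilution in microtiter plates served for Pasteurella and Mycoplasma, while agar dilution served for Klebsiella.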"}, "[6]": {"test_system": "Pasteurella hemolytica 23C", "assay": "MIC, conventional broth-dilution microtiter test", "type": "cell-based", "conditions": "Pasteurella, 23C", "in_short": "as §2"}, "[7]": {"test_system": "Mycoplasma gallisepticum 41313", "assay": "MIC, conventional broth-dilution microtiter test", "type": "cell-based", "conditions": "Mycoplasmoides gallisepticum, 41313", "in_short": "as §2"}, "[8]": {"test_system": "Pasteurella multocida 22A", "assay": "MIC, conventional broth-dilution microtiter test", "type": "cell-based", "conditions": "Pasteurella multocida, 22A", "in_short": "as §2"}, "[9]": {"test_system": "Pasteurella hemolytica 41D", "assay": "MIC, conventional broth-dilution microtiter test", "type": "cell-based", "conditions": "Pasteurella, 41D", "in_short": "as §2"}, "Streptococcus sp. 80": {"test_system": "Streptococcus sp. 80", "assay": "MIC, conventional broth-dilution microtiter test", "type": "cell-based", "conditions": "Streptococcus, SP.80", "method": "(§3) Certain of the derivatives are active against some gram-negative bacteria, such as Pasteurella species. The MIC's in Table II were determined by standard agar-dilution assays. The MIC's in Table III were obtained using a conventional broth-dilution microtiter test."}, "Mycoplasma hyorhinis": {"test_system": "Mycoplasma hyorhinis", "assay": "MIC, conventional broth-dilution microtiter test", "type": "cell-based", "conditions": "Mycoplasma", "in_short": "(§4)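 Minimum inhibitory concentrations are determined by conventional broth dilution in microtiter wells for Pasteurella and Mycoplasma isolates. For Klebsiella pneumoniae KAE, the standard agar-dilution assay is used.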"}, "[10]": {"test_system": "Pasteurella multocida 17E", "assay": "MIC, conventional broth-dilution microtiter test", "type": "cell-based", "conditions": "Pasteurella multocida, 17E", "in_short": "as §2"}, "Mycoplasma gallisepticum": {"test_system": "Mycoplasma gallisepticum", "assay": "MIC, conventional broth-dilution microtiter test", "type": "cell-based", "conditions": "Mycoplasmoides gallisepticum", "in_short": "as §2"}, "Mycoplasma synoviae": {"test_system": "Mycoplasma synoviae", "assay": "MIC, conventional broth-dilution microtiter test", "type": "cell-based", "conditions": "Mycoplasmopsis synoviae", "in_short": "as §4"}, "[11]": {"test_system": "Pasteurella hemolytica 22C", "assay": "MIC, conventional broth-dilution microtiter test", "type": "cell-based", "conditions": "Pasteurella, 22C", "in_short": "as §2"}, "Staphylococcus aureus": {"test_system": "Staphylococcus aureus", "assay": "MIC, conventional broth-dilution microtiter test", "type": "cell-based", "method": "as §3"}, "[12]": {"test_system": "Pasteurella multocida 60A", "assay": "MIC, conventional broth-dilution microtiter test", "type": "cell-based", "conditions": "Pasteurella multocida, 60A", "in_short": "as §2"}, "[13]": {"test_system": "Mycoplasma gallisepticum 34159", "assay": "MIC, conventional broth-dilution microtiter test", "type": "cell-based", "conditions": "Mycoplasmoides gallisepticum, 34159", "in_short": "as §2"}, "[14]": {"test_system": "Pasteurella multocida 68C", "assay": "MIC, conventional broth-dilution microtiter test", "type": "cell-based", "conditions": "Pasteurella multocida, 68C", "in_short": "as §2"}, "[15]": {"test_system": "Staphylococcus aureus S13E", "assay": "microbe, parasite or virus in culture", "type": "cell-based", "method": "as §1"}, "[16]": {"test_system": "Staphylococcus epidermidis EPI1", "assay": "microbe, parasite or virus in culture", "type": "cell-based", "conditions": "Staphylococcus epidermidis, EPI1", "method": "as §1"}, "[17]": {"test_system": "Streptococcus pyogenes C203", "assay": "Protection of mice experimentally infected with S. pyogenes C203", "type": "in vivo", "method": "Some of the derivatives of this invention have shown in vivo antimicrobial activity against experimentally-induced infections in laboratory animals. When two doses of test compound were administered to mice experimentally infected with S. pyogenes C203, the activity observed was measured as an ED50 value [effective dose in mg/kg to protect 50% of the test animals: see Warren Wick, et al., J. Bacteriol. 81, 233-235 (1961)]."}, "[18]": {"test_system": "Streptococcus pneumoniae Park I", "assay": "MIC, standard agar-dilution assay", "type": "cell-based", "conditions": "Streptococcus pneumoniae", "method": "as §3"}, "[19]": {"test_system": "Streptococcus pyogenes 9960", "assay": "MIC, standard agar-dilution assay", "type": "cell-based", "conditions": "9960", "method": "as §3"}, "[20]": {"test_system": "Klebsiella pneumoniae X26", "assay": "MIC, standard agar-dilution assay", "type": "cell-based", "conditions": "Klebsiella pneumoniae, X26", "in_short": "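Broth microdilution MICs cover P. hemolytica, P. multocida and M. gallisepticum. The agar-dilution MIC covers K. pneumoniae only.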"}, "[21]": {"test_system": "Staphylococcus aureus X1.1", "assay": "MIC, standard agar-dilution assay", "type": "cell-based", "conditions": "Staphylococcus aureus, X1.1", "in_short": "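Minimum inhibitory concentration against Staphylococcus aureus strain X1.1 was measured with a standard agar-dilution method. The result is reported as the MIC in ug/mL, i.e. the lowest compound concentration in agar that prevents visible growth of this organism.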"}, "[22]": {"test_system": "Klebsiella pneumoniae KAE", "assay": "MIC, standard agar-dilution assay", "type": "cell-based", "conditions": "Klebsiella pneumoniae", "in_short": "as §2"}, "Escherichia coli TEM": {"test_system": "Escherichia coli TEM", "assay": "MIC, standard agar-dilution assay", "type": "cell-based", "conditions": "Escherichia coli", "in_short": "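Minimum inhibitory concentrations against Escherichia coli were measured with a standard agar-dilution method. The result for each derivative is the lowest concentration that inhibits bacterial growth, given in ug/mL.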"}, "Escherichia coli EC14": {"test_system": "Escherichia coli EC14", "assay": "MIC, standard agar-dilution assay", "type": "cell-based", "conditions": "Escherichia coli, EC14", "method": "as §3"}, "[23]": {"test_system": "Streptococcus pyogenes C203", "assay": "MIC, standard agar-dilution assay", "type": "cell-based", "conditions": "Streptococcus pyogenes, C203", "method": "as §3"}, "[24]": {"test_system": "Streptococcus Group D X66", "assay": "MIC, standard agar-dilution assay", "type": "cell-based", "method": "as §3"}, "[25]": {"test_system": "Staphylococcus aureus V41", "assay": "MIC, standard agar-dilution assay", "type": "cell-based", "conditions": "Staphylococcus aureus, V41", "method": "as §3"}}, "note": "Read-outs that look alike come from different tables or passages of the source."}
{"smiles": "CCC1CC(C)C(=O)C=CC(C)=CC(COC(=O)Cc2ccccc2)C(CC)OC(=O)CC(O)C(C)C1OC1OC(C)C(O)C(N(C)C)C1O", "note": "(stereo not drawn) [Compound 41, 23-O-Phenylacetyl-20-deoxy-20-dihydro-OMT]", "values": [{"measurement": "MIC", "setting": "[1]", "value": 0.5, "unit": "µg/mL"}, {"measurement": "MIC", "setting": "[2]", "value": 0.5, "unit": "µg/mL"}, {"measurement": "MIC", "setting": "[3]", "value": 8, "unit": "µg/mL"}, {"measurement": "MIC", "setting": "[4]", "value": 8, "unit": "µg/mL"}, {"measurement": "MIC", "setting": "[5]", "value": 12.5, "unit": "µg/mL"}, {"measurement": "MIC", "setting": "[6]", "value": 12.5, "unit": "µg/mL"}, {"measurement": "MIC", "setting": "[7]", "value": 50, "unit": "µg/mL"}, {"measurement": "MIC", "setting": "[8]", "value": 25, "unit": "µg/mL"}, {"measurement": "MIC", "setting": "[9]", "value": 12.5, "unit": "µg/mL"}, {"measurement": "MIC", "setting": "Streptococcus sp. 80", "value": 1.56, "unit": "µg/mL"}, {"measurement": "MIC", "setting": "Mycoplasma hyorhinis", "value": 50, "unit": "µg/mL"}, {"measurement": "MIC", "setting": "[10]", "value": 12.5, "unit": "µg/mL"}, {"measurement": "MIC", "setting": "Mycoplasma gallisepticum", "value": 3.12, "unit": "µg/mL"}, {"measurement": "MIC", "setting": "Mycoplasma synoviae", "value": 3.12, "unit": "µg/mL"}, {"measurement": "MIC", "setting": "[11]", "value": 12.5, "unit": "µg/mL"}, {"measurement": "MIC", "setting": "Staphylococcus aureus", "value": 0.78, "unit": "µg/mL"}, {"measurement": "MIC", "setting": "[12]", "value": 3.12, "unit": "µg/mL"}, {"measurement": "MIC", "setting": "[13]", "value": 50, "unit": "µg/mL"}, {"measurement": "MIC", "setting": "[14]", "value": 3.12, "unit": "µg/mL"}, {"measurement": "MIC", "setting": "[15]", "value": 0.5, "unit": "µg/mL"}, {"measurement": "MIC", "setting": "[16]", "value": 0.5, "unit": "µg/mL"}, {"measurement": "ED50", "setting": "[17]; C203, po, read-out: ED50 Oral", "value": "> 100", "unit": "mg/kg"}, {"measurement": "ED50", "setting": "[17]; C203, sc, read-out: ED50 Subcutaneous", "value": "> 25", "unit": "mg/kg"}, {"measurement": "MIC", "setting": "[18]", "value": 0.25, "unit": "µg/mL"}, {"measurement": "MIC", "setting": "[19]", "value": 1, "unit": "µg/mL"}, {"measurement": "MIC", "setting": "[20]", "value": 4, "unit": "µg/mL"}, {"measurement": "MIC", "setting": "[21]", "value": 0.5, "unit": "µg/mL"}, {"measurement": "MIC", "setting": "[22]", "value": "> 128", "unit": "µg/mL"}, {"measurement": "MIC", "setting": "Escherichia coli TEM", "value": 16, "unit": "µg/mL"}, {"measurement": "MIC", "setting": "Escherichia coli EC14", "value": 128, "unit": "µg/mL"}, {"measurement": "MIC", "setting": "[23]", "value": 0.5, "unit": "µg/mL"}, {"measurement": "MIC", "setting": "[24]", "value": 1, "unit": "µg/mL"}, {"measurement": "MIC", "setting": "[25]", "value": 0.5, "unit": "µg/mL"}]}
